# Data reported in US12404270B2, “Quinazoline derivatives as LPA receptor 2 inhibitors” (CHIESI FARMACEUTICI S.P.A., priority 2019, dated 2025).
# Molecular target: T1, human recombinant LPA2 expressed in CHO cells (Homo sapiens, UniProt Q9HBW0)
# T1 construct: expressed in transfected cells; host or cells: CHO (CHO-hLPA2 cell line)
# Test: FLIPR calcium mobilization assay, LPA2 antagonism in CHO-hLPA2 cells
# Assay type: cell-based
# Conditions: CHO-hLPA2 cells, inhibition of LPA EC80 Ca2+ response, 30 min pre-incubation; read-out: LPA2 IC50
# Procedure: The effectiveness of compounds of the present invention as LPA2 antagonist can be determined at the human recombinant LPA2 expressed in CHO cells, using a FLIPR assay in 384 well format.
# CHO-hLPA2 cell lines are cultured in a humidified incubator at 5% CO2 in DMEM/F-12 (1:1) MIXTURE with 2 mM Glutamax, supplemented with 10% of Foetal Bovine Serum, 1 mM Sodium Pyruvate, 11 mM Hepes and 1× Penicillin/Streptomycin. CHO hLPA2 cells are seeded into black walled clear-bottom 384-well plates (#781091, Greiner Bio-One GmbH) at a density of 7,500 cells per well in 50 μl culture media and grown overnight in a 37° C. humidified CO2-incubator. Serial dilutions (1:3 or 1:4, 11 points CRC) of compounds are performed in 100% DMSO at 200× the final concentration. The compounds are diluted 1:50 prior to the experiment with Assay Buffer (20 mM HEPES, 145 mM NaCl, 5 mM KCl, 5.5 mM glucose, 1 mM MgCl2 and 2 mM CaCl2, pH 7.4 containing 0.01% Pluronic F-127) to obtain a solution corresponding to […] the final concentration in the assay (4×, 2% DMSO). The final concentration of DMSO in the assay will be 0.5% in each well. Medium is removed by aspiration and cells are then incubated with 30 μl of a loading solution containing 5 μM of the cytoplasmic Ca2+ indicator Cal-520 AM in Assay Buffer containing 2.5 mM probenecid for 30 min at 37° C. incubator (cell loading). The loaded cell plates are transferred into the FLIPR instrument and calcium responses are monitored during the on-line addition protocols. For testing of compounds, after the cell loading, 10 μl/well of 4× antagonists' solution was added onto the cells. […] Intracellular peak fluorescence values subtracted by baseline fluorescence are exported and analysed to determine IC50 values, respectively. The calcium response is expressed as percentage of the maximal inhibition of the EC80 agonist response.
# The raw data (peak height expressed as relative fluorescence units) are normalized and transformed into “percent of inhibition”. Curve fitting and pIC50 (−Log IC50) estimations are carried out using a four-parameter logistic model using XLfit Software.
# T1 sequence (Q9HBW0 whole entry): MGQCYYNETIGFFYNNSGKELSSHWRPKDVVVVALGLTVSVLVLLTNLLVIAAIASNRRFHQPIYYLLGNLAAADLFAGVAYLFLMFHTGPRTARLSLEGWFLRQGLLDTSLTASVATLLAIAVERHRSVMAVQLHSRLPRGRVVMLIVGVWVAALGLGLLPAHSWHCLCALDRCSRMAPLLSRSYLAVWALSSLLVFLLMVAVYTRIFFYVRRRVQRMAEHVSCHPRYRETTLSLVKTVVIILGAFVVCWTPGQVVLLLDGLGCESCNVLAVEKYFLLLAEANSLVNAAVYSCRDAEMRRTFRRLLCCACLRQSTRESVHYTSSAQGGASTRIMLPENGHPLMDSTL
row,SMILES,IC50 [nM]
1,"Cc1noc(-c2ccc(S(=O)(=O)N3CCN(C[C@H](C)Nc4ncnc5c(C(=O)N6CCC[C@H]6C(F)(F)F)cccc45)CC3)s2)c1C (racemic) [Example 69, N-[(2S)-1-(4-{[5-(3,4-dimethyl-1,2-oxazol-5-yl)thiophen-2-yl]sulfonyl}piperazin-1-yl)propan-2-yl]-8-[(2S)-2-(trifluoromethyl)pyrrolidine-1-carbonyl]quinazolin-4-amine]",< 10
2,"Cc1noc(-c2ccc(S(=O)(=O)N3CCN(C[C@H](C)Nc4ncnc5c(C(=O)N6CCC[C@@H]6C(F)(F)F)cccc45)CC3)s2)c1C (racemic) [Example 76, N-[(2S)-1-(4-{[5-(3,4-dimethyl-1,2-oxazol-5-yl)thiophen-2-yl]sulfonyl}piperazin-1-yl)propan-2-yl]-8-[(2R)-2-(trifluoromethyl)pyrrolidine-1-carbonyl]quinazolin-4-amine]",< 10
3,"Cc1noc(-c2ccc(S(=O)(=O)N3CCN(C[C@H](C)Nc4ncnc5c(C(=O)N6CC7CC7C6)cccc45)CC3)s2)c1C (mixture of isomers) [Example 85, 8-{3-azabicyclo[3.1.0]hexane-3-carbonyl}-N-[(2S)-1-(4-{[5-(3,4-dimethyl-1,2-oxazol-5-yl)thiophen-2-yl]sulfonyl}piperazin-1-yl)propan-2-yl]quinazolin-4-amine]",< 10
4,"Cc1noc(-c2ccc(S(=O)(=O)N3CCN(C[C@H](C)Nc4ncnc5c(C(=O)N6CCC[C@@H]6C)cccc45)CC3)s2)c1C (racemic) [Example 86, N-[(2S)-1-(4-{[5-(3,4-dimethyl-1,2-oxazol-5-yl)thiophen-2-yl]sulfonyl}piperazin-1-yl)propan-2-yl]-8-[(2S)-2-methylpyrrolidine-1-carbonyl]quinazolin-4-amine]",< 10
5,"Cc1noc(-c2ccc(S(=O)(=O)N3CCN(C[C@H](C)Nc4ncnc5c(OC(F)F)cccc45)CC3)s2)c1C [Example 4, 8-(difluoromethoxy)-N-[(2S)-1-(4-{[5-(3,4-dimethyl-1,2-oxazol-5-yl)thiophen-2-yl]sulfonyl}piperazin-1-yl)propan-2-yl]quinazolin-4-amine]",10 to 100
6,"C[C@@H](CN1CCN(S(=O)(=O)c2ccc(Cl)c(Cl)c2)CC1)Nc1ncnc2c(Cl)cccc12 [Example 6, 8-chloro-N-[(2S)-1-[4-(3,4-dichlorobenzenesulfonyl)piperazin-1-yl]propan-2-yl]quinazolin-4-amine]",< 1000
7,"COC(=O)c1cccc2c(N[C@@H](C)CN3CCN(S(=O)(=O)c4cnc(-c5ccccc5)s4)CC3)ncnc12 [Example 12, methyl 4-{[(2S)-1-{4-[(2-phenyl-1,3-thiazol-5-yl)sulfonyl]piperazin-1-yl}propan-2-yl]amino}quinazoline-8-carboxylate]",10 to 100
8,"CC(=O)Nc1ncc(S(=O)(=O)N2CCN(C[C@H](C)Nc3nc(C)nc4c(C(F)(F)F)cccc34)CC2)s1 [Example 13, N-[5-({4-[(2S)-2-{[2-methyl-8-(trifluoromethyl)quinazolin-4-yl]amino}propyl]piperazin-1-yl}sulfonyl)-1,3-thiazol-2-yl]acetamide]",10 to 100
9,"COC(=O)c1cccc2c(N[C@@H](C)CN3CCN(S(=O)(=O)c4ccc(-c5ccno5)s4)CC3)ncnc12 [Example 16, methyl 4-{[(2S)-1-(4-{[5-(1,2-oxazol-5-yl)thiophen-2-yl]sulfonyl}piperazin-1-yl)propan-2-yl]amino}quinazoline-8-carboxylate]",10 to 100
10,"COC(=O)c1cccc2c(N[C@@H](C)CN3CCN(S(=O)(=O)c4cnc(NC(C)=O)s4)CC3)ncnc12 [Example 20, methyl 4-{[(2S)-1-{4-[(2-acetamido-1,3-thiazol-5-yl)sulfonyl]piperazin-1-yl}propan-2-yl]amino}quinazoline-8-carboxylate]",10 to 100
11,"COCC(=O)Nc1ncc(S(=O)(=O)N2CCN(C[C@H](C)Nc3ncnc4c(C(F)(F)F)cccc34)CC2)s1 [Example 24, 2-methoxy-N-[5-({4-[(2S)-2-{[8-(trifluoromethyl)quinazolin-4-yl]amino}propyl]piperazin-1-yl}sulfonyl)-1,3-thiazol-2-yl]acetamide]",< 1000

# The remaining lines, values ahead:
row,IC50 [nM],SMILES
1,10 to 100,"COC(=O)Nc1nc(C)c(S(=O)(=O)N2CCN(C[C@H](C)Nc3ncnc4c(C(=O)N5CCC[C@@H]5C(F)(F)F)cccc34)CC2)s1 (racemic) [Example 79, methyl N-[4-methyl-5-({4-[(2S)-2-({8-[(2R)-2-(trifluoromethyl)pyrrolidine-1-carbonyl]quinazolin-4-yl}amino)propyl]piperazin-1-yl}sulfonyl)-1,3-thiazol-2-yl]carbamate]"
2,10 to 100,"COC(=O)Nc1nc(C)c(S(=O)(=O)N2CCN(C[C@H](C)Nc3ncnc4c(C(=O)N5CCC[C@@H]5C)cccc34)CC2)s1 (racemic) [Example 82, methyl N-[4-methyl-5-({4-[(2S)-2-({8-[(2S)-2-methylpyrrolidine-1-carbonyl]quinazolin-4-yl}amino)propyl]piperazin-1-yl}sulfonyl)-1,3-thiazol-2-yl]carbamate]"
3,< 1000,"COC(=O)Nc1nc(C)c(S(=O)(=O)N2CCN(C[C@H](C)Nc3ncnc4c(C(=O)N5CCC[C@H]5C(F)(F)F)cccc34)CC2)s1 (racemic) [Example 84, methyl N-[4-methyl-5-({4-[(2S)-2-({8-[(2S)-2-(trifluoromethyl)pyrrolidine-1-carbonyl]quinazolin-4-yl}amino)propyl]piperazin-1-yl}sulfonyl)-1,3-thiazol-2-yl]carbamate]"
4,10 to 100,"COC(=O)Nc1nc(C)c(S(=O)(=O)N2CCN(C[C@H](C)Nc3ncnc4c(C(=O)N5CC6CC6C5)cccc34)CC2)s1 (mixture of isomers) [Example 87, methyl N-[5-({4-[(2S)-2-[(8-{3-azabicyclo[3.1.0]hexane-3-carbonyl}quinazolin-4-yl)amino]propyl]piperazin-1-yl}sulfonyl)-4-methyl-1,3-thiazol-2-yl]carbamate]"
5,10 to 100,"COC(=O)Nc1nc(C)c(S(=O)(=O)N2CCN(C[C@H](C)Nc3nc(C)nc4c(C(F)(F)F)cccc34)CC2)s1 [Example 2, methyl N-[4-methyl-5-({4-[(2S)-2-{[2-methyl-8-(trifluoromethyl)quinazolin-4-yl]amino}propyl]piperazin-1-yl}sulfonyl)-1,3-thiazol-2-yl]carbamate]"
6,10 to 100,"COC(=O)Nc1nc(C)c(S(=O)(=O)N2CCN(C[C@H](C)Nc3ncnc4c(OC(F)(F)F)cccc34)CC2)s1 [Example 3, Methyl N-[4-methyl-5-({4-[(2S)-2-{[8-(trifluoromethoxy)quinazolin-4-yl]amino}propyl]piperazin-1-yl}sulfonyl)-1,3-thiazol-2-yl]carbamate]"
7,< 1000,"COC(=O)Nc1nc(C)c(S(=O)(=O)N2CCN(C[C@H](C)Nc3nc(C(F)(F)F)nc4ccccc34)CC2)s1 [Example 11, methyl N-[4-methyl-5-({4-[(2S)-2-{[2-(trifluoromethyl)quinazolin-4-yl]amino}propyl]piperazin-1-yl}sulfonyl)-1,3-thiazol-2-yl]carbamate]"
8,< 1000,"COC(=O)Nc1nc(C)c(S(=O)(=O)N2CCN(C[C@H](C)Nc3nc(C4CC4)nc4ccccc34)CC2)s1 [Example 15, methyl N-[5-({4-[(2S)-2-[(2-cyclopropylquinazolin-4-yl)amino]propyl]piperazin-1-yl}sulfonyl)-4-methyl-1,3-thiazol-2-yl]carbamate]"
9,10 to 100,"COC(=O)Nc1nc(C)c(S(=O)(=O)N2CCN(C[C@H](C)Nc3ncnc4c(C(=O)OC)cccc34)CC2)s1 [Example 17, methyl 4-{[(2S)-1-[4-({2-[(methoxycarbonyl)amino]-4-methyl-1,3-thiazol-5-yl}sulfonyl)piperazin-1-yl]propan-2-yl]amino}quinazoline-8-carboxylate]"
10,10 to 100,"COC(=O)Nc1nc(C)c(S(=O)(=O)N2CCN(C[C@H](C)Nc3nc(C4CC4)nc4c(C)cccc34)CC2)s1 [Example 18, methyl N-[5-({4-[(2S)-2-[(2-cyclopropyl-8-methylquinazolin-4-yl)amino]propyl]piperazin-1-yl}sulfonyl)-4-methyl-1,3-thiazol-2-yl]carbamate]"
11,< 1000,"CC(=O)Nc1ncc(S(=O)(=O)N2CCN(C[C@H](C)Nc3nc(C4CC4)nc4c(C)cccc34)CC2)s1 [Example 19, N-[5-({4-[(2S)-2-[(2-cyclopropyl-8-methylquinazolin-4-yl)amino]propyl]piperazin-1-yl}sulfonyl)-1,3-thiazol-2-yl]acetamide]"
12,< 1000,"COCC(=O)Nc1nc(C)c(S(=O)(=O)N2CCN(C[C@H](C)Nc3ncnc4c(C(F)(F)F)cccc34)CC2)s1 [Example 25, 2-methoxy-N-[4-methyl-5-({4-[(2S)-2-{[8-(trifluoromethyl)quinazolin-4-yl]amino}propyl]piperazin-1-yl}sulfonyl)-1,3-thiazol-2-yl]acetamide]"
